Results: ChEMBL document CHEMBL4765407, “Design, synthesis and high antitumor potential of new unsymmetrical bisacridine derivatives towards human solid tumors, specifically pancreatic cancers and their unique ability to stabilize DNA G-quadruplexes” (Eur J Med Chem, 2020)

Tests used:
NCI-H460 [1] = test: Antitumour activity against human NCI-H460 cells xenografted in Crl:Nu-Foxnl nu mouse assessed as inhibition of tumour growth at total effective dose of 48 mg/kg, iv measured on day 23; type: functional; conditions: 552 h, time 23 day, read-out: TGI
W256 [2] = test: Antitumour activity against Walker 256 adenocarcinoma cells implanted in Wistar rat assessed as increase in animal survival rate by measuring T/C ratio at 2.5 mg/kg, ip qd for 3 days administered on day 3,4,5 after tumor cell transplantation; type: functional; conditions: time 3 day
NCI-H460 [3] = test: Cytotoxicity against human NCI-H460 cells assessed as reduction in cell viability measured after 72 hrs by SRB assay; type: functional, cell-based; conditions: NCI-H460, 72 h
MDA-MB-231 [4] = test: Cytotoxicity against human MDA-MB-231 cells assessed as reduction in cell viability measured after 72 hrs by SRB assay; type: functional, cell-based; conditions: MDA-MB-231, 72 h
MCF7 = test: Cytotoxicity against human MCF7 cells assessed as reduction in cell viability measured after 72 hrs by SRB assay; type: functional, cell-based; conditions: MCF7, 72 h
PC-3 = test: Cytotoxicity against human PC-3 cells assessed as reduction in cell viability measured after 72 hrs by SRB assay; type: functional, cell-based; conditions: PC-3, 72 h
DU-145 [5] = test: Cytotoxicity against human DU-145 cells assessed as reduction in cell viability measured after 72 hrs by SRB assay; type: functional, cell-based; conditions: DU-145, 72 h
MIA PaCa-2 = test: Cytotoxicity against human MIA PaCa-2 cells assessed as reduction in cell viability measured after 72 hrs by SRB assay; type: functional, cell-based; conditions: MIA PaCa-2, 72 h
Quadruplex DNA [6] = test: Stabilization of 5'-FAM/3'-TAMRA labeled c-Myc promoter G4 quadruplex DNA FPu18 (unknown origin) assessed as change in melting temperature at 10 microM measured after 15 mins by FRET assay; type: nucleic-acid assay
DU-145 [7] = test: Antitumour activity against human DU-145 cells xenografted in Crl:Nu-Foxnl nu mouse assessed as inhibition of tumour growth at total effective dose of 8 mg/kg, iv measured on day 64; type: functional; conditions: DU-145, iv, 1536 h, time 64 day, read-out: TGI
DU-145 [8] = test: Antitumour activity against human DU-145 cells xenografted in Crl:Nu-Foxnl nu mouse assessed as inhibition of tumour growth at total effective dose of 16 mg/kg, iv measured on day 35; type: functional; conditions: DU-145, iv, 840 h, time 35 day, read-out: TGI
[9] = Stabilization of ds 5'-FAM-d(TATAGCTATA-HEG-TATAGCTATA)-TAMRA-3' (unknown origin) assessed as change in melting temperature at 10 microM measured after 15 mins by FRET assay; conditions: Homo sapiens
PANC-1 [10] = test: Cytotoxicity against human PANC-1 cells assessed as reduction in cell viability measured after 72 hrs by SRB assay; type: functional, cell-based; conditions: PANC-1, 72 h
Quadruplex DNA [11] = test: Stabilization of 5'-FAM/3'-TAMRA labeled K-Ras G4 quadruplex DNA (unknown origin) assessed as change in melting temperature at 10 microM measured after 15 mins by FRET assay; type: nucleic-acid assay
HCT-116 [12] = test: Antitumour activity against human HCT-116 cells xenografted in Crl:Nu-Foxnl nu mouse assessed as inhibition of tumour growth at total effective dose of 24 mg/kg, iv measured on day 30; type: functional; conditions: HCT-116, iv, 720 h, time 30 day, read-out: TGI
Quadruplex DNA [13] = test: Stabilization of 5'-FAM/3'-TAMRA labeled telomeric G4 quadruplex DNA F21T (unknown origin) assessed as change in melting temperature at 10 microM measured after 15 mins by FRET assay; type: nucleic-acid assay
ASPC1 = test: Cytotoxicity against human ASPC1 cells assessed as reduction in cell viability measured after 72 hrs by SRB assay; type: functional, cell-based; conditions: ASPC1, 72 h
UMUC3 = test: Cytotoxicity against human UMUC3 cells assessed as reduction in cell viability measured after 72 hrs by SRB assay; type: functional, cell-based; conditions: UMUC3, 72 h
HCT-116 [14] = test: Antitumour activity against human HCT-116 cells xenografted in Crl:Nu-Foxnl nu mouse assessed as inhibition of tumour growth at total effective dose of 18 mg/kg, ip measured on day 14; type: functional; conditions: HCT-116, ip, 336 h, time 14 day, read-out: TGI
HCT-116 [15] = test: Cytotoxicity against human HCT-116 cells assessed as reduction in cell viability measured after 72 hrs by SRB assay; type: functional, cell-based; conditions: HCT-116, 72 h
HT-29 = test: Cytotoxicity against human HT-29 cells assessed as reduction in cell viability measured after 72 hrs by SRB assay; type: functional, cell-based; conditions: HT-29, 72 h
LNCaP = test: Cytotoxicity against human LNCaP cells assessed as reduction in cell viability measured after 72 hrs by SRB assay; type: functional, cell-based
W256 [16] = test: Antitumour activity against Walker 256 adenocarcinoma cells implanted in Wistar rat assessed as increase in animal survival rate by measuring T/C ratio at 5 mg/kg, ip qd for 3 days administered on day 3,4,5 after tumor cell transplantation; type: functional; conditions: time 3 day
NCI-H460 [17] = test: Antitumour activity against human NCI-H460 cells xenografted in Crl:Nu-Foxnl nu mouse assessed as inhibition of tumour growth at total effective dose of 60 mg/kg, ip measured on day 14; type: functional; conditions: 336 h, time 14 day, read-out: TGI
PANC-1 [18] = test: Antitumour activity against human PANC-1 cells xenografted in Crl:Nu-Foxnl nu mouse assessed as inhibition of tumour growth at total effective dose of 120 mg/kg, iv measured on day 51; type: functional; conditions: PANC-1, iv, 1224 h, time 51 day, read-out: TGI
BXPC-3 = test: Cytotoxicity against human BXPC-3 cells assessed as reduction in cell viability measured after 72 hrs by SRB assay; type: functional, cell-based; conditions: BXPC-3, 72 h
DU-145 [19] = test: Antitumour activity against human DU-145 cells xenografted in Crl:Nu-Foxnl nu mouse assessed as inhibition of tumour growth at total effective dose of 8 mg/kg, iv measured on day 33; type: functional; conditions: DU-145, iv, 792 h, time 33 day, read-out: TGI
MDA-MB-231 [20] = test: Antitumour activity against human MDA-MB-231 cells xenografted in Crl:Nu-Foxnl nu mouse assessed as inhibition of tumour growth at total effective dose of 8 mg/kg, iv measured on day 50; type: functional; conditions: MDA-MB-231, iv, 1200 h, time 50 day, read-out: TGI
DU-145 [21] = test: Antitumour activity against human DU-145 cells xenografted in Crl:Nu-Foxnl nu mouse assessed as inhibition of tumour growth at total effective dose of 32 mg/kg, iv measured on day 63; type: functional; conditions: DU-145, iv, 1512 h, time 63 day, read-out: TGI
W256 [22] = test: Antitumour activity against Walker 256 adenocarcinoma cells implanted in Wistar rat assessed as increase in animal survival rate by measuring T/C ratio at 2 mg/kg, ip qd for 3 days administered on day 3,4,5 after tumor cell transplantation; type: functional; conditions: time 3 day
NCI-H460 [23] = test: Antitumour activity against human NCI-H460 cells xenografted in Crl:Nu-Foxnl nu mouse assessed as inhibition of tumour growth at total effective dose of 10 mg/kg, iv measured on day 21; type: functional; conditions: 504 h, time 21 day, read-out: TGI
NCI-H460 [24] = test: Antitumour activity against human NCI-H460 cells xenografted in Crl:Nu-Foxnl nu mouse assessed as inhibition of tumour growth at total effective dose of 30 mg/kg, ip measured on day 14; type: functional; conditions: 336 h, time 14 day, read-out: TGI
DU-145 [25] = test: Antitumour activity against human DU-145 cells xenografted in Crl:Nu-Foxnl nu mouse assessed as inhibition of tumour growth at total effective dose of 48 mg/kg, ip measured on day 35; type: functional; conditions: DU-145, ip, 840 h, time 35 day, read-out: TGI
W256 [26] = test: Antitumour activity against Walker 256 adenocarcinoma cells implanted in Wistar rat assessed as increase in animal survival rate by measuring T/C ratio at 6.25 mg/kg, ip qd for 3 days administered on day 3,4,5 after tumor cell transplantation; type: functional; conditions: time 3 day

SMILES | IC50 (NCI-H460 [3]) [nM] | IC50 (MDA-MB-231 [4]) [nM] | IC50 (MCF7) [nM] | IC50 (PC-3) [nM] | IC50 (DU-145 [5]) [nM] | IC50 (MIA PaCa-2) [nM] | ΔTm (Quadruplex DNA [6]) [°C] | ΔTm [9] [°C] | IC50 (PANC-1 [10]) [nM] | ΔTm (Quadruplex DNA [11]) [°C] | ΔTm (Quadruplex DNA [13]) [°C] | IC50 (ASPC1) [nM] | IC50 (UMUC3) [nM] | IC50 (HCT-116 [15]) [nM] | IC50 (HT-29) [nM] | IC50 (LNCaP) [nM] | further results
O=c1c2ccccc2[nH]c2c([N+](=O)[O-])ccc(NCCCN3CCN(CCCNc4c5ccccc5nc5cccc([N+](=O)[O-])c45)CC3)c12 | 9 | 28 | 77 | 26 | 11 | 28 | 23.7 | 3.2 | 56 | 25.1 | 8.5 | 78 | 17 | 20 |  |  | inhibition in vivo at 48 mg/kg (NCI-H460 [1]): 60%; T/C (W256 [2]): 400%; inhibition in vivo at 8 mg/kg (DU-145 [7]): 81%; inhibition in vivo at 16 mg/kg (DU-145 [8]): 77%; inhibition in vivo at 24 mg/kg (HCT-116 [12]): 34%; inhibition in vivo at 18 mg/kg (HCT-116 [14]): 52%
Cc1ccc([N+](=O)[O-])c2c(NCCCNCCCNc3ccc(C)c4[nH]c5ccccc5c(=O)c34)c3ccccc3nc12 | 67 |  |  |  | 129 |  |  |  | 162 |  |  |  | 105 | 85 | 1300 | 213 | T/C (W256 [16]): 1300%; inhibition in vivo at 60 mg/kg (NCI-H460 [17]): 25%
Cc1ccc(NCCCN2CCN(CCCNc3c4ccccc4nc4cccc([N+](=O)[O-])c34)CC2)c2c(=O)c3cc(O)ccc3[nH]c12 | 5 | 28 | 113 | 48 | 20 | 16 | 17.9 | 1.7 | 27 | 27.6 | 7.3 | 79 | 9.5 | 19 | 23 | 84 | inhibition in vivo at 120 mg/kg (PANC-1 [18]): 75%; IC50 (BXPC-3): 59 nM; inhibition in vivo at 8 mg/kg (DU-145 [19]): 51%; inhibition in vivo at 8 mg/kg (MDA-MB-231 [20]): 30%; inhibition in vivo at 32 mg/kg (DU-145 [21]): 90%; T/C (W256 [22]): 250%; inhibition in vivo at 10 mg/kg (NCI-H460 [23]): 42%
Cc1ccc([N+](=O)[O-])c2c(NCCCN3CCN(CCCNc4ccc(C)c5[nH]c6ccc(O)cc6c(=O)c45)CC3)c3ccccc3nc12 | 40 | 48 |  |  | 46 | 67 |  |  |  |  |  |  |  | 47 | 61 | 300 | inhibition in vivo at 30 mg/kg (NCI-H460 [24]): 6%; inhibition in vivo at 48 mg/kg (DU-145 [25]): 25%; T/C (W256 [26]): 300%
